Among the data in patent publication US20250313563A1, “GLYCOGEN SYNTHASE KINASE 3 INHIBITORS AND USES THEREOF” (The Broad Institute, Inc., priority 2022, published 2025) are IC50 values, retold here.

Assay [1] concerns the target GSK3α (GST-full length GSK3α) (Homo sapiens (Human), UniProt P49840). Nature of the assay: GSK3α TR-FRET kinase assay. The class given is biochemical. In outline:
(§1)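 1 nM GST-GSK3α/β + cpd, 30 min preinc; add 200 nM biotin-pS645 GS(631-650) peptide + ATP (α 4 μM / β 2 μM, or 1 mM); 100 min RT, 50 mM Tris pH 7.5, 20 mM MgCl2, 1% DMSO; EDTA stop; SA-d2/Tb-pSer641 Ab 60 min; 665/615 ratio → IC50.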
On the technique in general: TR-FRET usually uses a lanthanide donor and a delayed reading to cut background.

For assay [2], the target named is GSK3b (GST-full length GSK3b) (Homo sapiens (Human), UniProt P49841). Nature of the assay: GSK3b TR-FRET kinase assay. The class given is biochemical. The method in brief: as §1
Chain of GSK3b (GST-full length GSK3b) (P49841 whole entry): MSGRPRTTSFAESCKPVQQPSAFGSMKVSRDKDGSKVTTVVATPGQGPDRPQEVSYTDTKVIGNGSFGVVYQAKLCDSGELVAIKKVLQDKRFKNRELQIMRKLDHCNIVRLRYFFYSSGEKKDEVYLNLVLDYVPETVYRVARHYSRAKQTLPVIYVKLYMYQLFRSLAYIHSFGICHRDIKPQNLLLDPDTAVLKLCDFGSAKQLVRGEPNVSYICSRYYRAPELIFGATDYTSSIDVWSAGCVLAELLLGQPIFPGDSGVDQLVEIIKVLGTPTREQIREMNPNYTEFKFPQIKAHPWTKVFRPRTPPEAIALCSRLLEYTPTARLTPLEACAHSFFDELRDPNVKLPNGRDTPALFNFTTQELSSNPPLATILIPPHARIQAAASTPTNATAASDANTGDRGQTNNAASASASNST
Setting [3] is: 1 nM GSK3α, 4 μM ATP, 30 minute preincubation, geometric mean, read-out: GSK3-A TR-FRET BIOCHEMICAL (TR-FRET), GMean, IC50.
Setting [4] is: 1 nM GSK3b, 2 μM ATP, 30 minute preincubation, geometric mean, read-out: GSK3-B TR-FRET BIOCHEMICAL (TR-FRET), GMean, IC50.
Setting [5] is: 1 nM GSK3α, 4 μM ATP, 30 minute preincubation, read-out: GSK3-A TR-FRET BIOCHEMICAL (TR-FRET), IC50.
Where [6] appears, read: 1 nM GSK3b, 2 μM ATP, 30 minute preincubation, read-out: GSK3-B TR-FRET BIOCHEMICAL (TR-FRET), IC50.
[7] abbreviates: 1 nM GSK3α, 4 μM ATP, 30 minute preincubation, Table 16, read-out: GSK3-A TR-FRET BIOCHEMICAL (TR-FRET), IC50.
The mark [8] stands for this setting: 1 nM GSK3b, 2 μM ATP, 30 minute preincubation, Table 16, read-out: GSK3-B TR-FRET BIOCHEMICAL (TR-FRET), IC50.
Setting [9] is: 1 nM GSK3α, 4 μM ATP, 30 minute preincubation, Table 16, read-out: GSK3-A TR-FRET BIOCHEMICAL (TR-FRET).
Setting [10] is: 1 nM GSK3b, 2 μM ATP, 30 minute preincubation, Table 16, read-out: GSK3-B TR-FRET BIOCHEMICAL (TR-FRET).
The mark [11] stands for this setting: read-out: GSK3-A (TR-FRET 1 mM ATP), GMean, IC50, 1 mM ATP, geometric mean.
[12] abbreviates: read-out: GSK3-B (TR-FRET 1 mM ATP), GMean, IC50, 1 mM ATP, geometric mean.

Like-named read-outs stand apart in the source and are kept apart here. Where only a bound is given, the exact number is not on record here.

Chain of GSK3α (GST-full length GSK3α) (P49840 whole entry): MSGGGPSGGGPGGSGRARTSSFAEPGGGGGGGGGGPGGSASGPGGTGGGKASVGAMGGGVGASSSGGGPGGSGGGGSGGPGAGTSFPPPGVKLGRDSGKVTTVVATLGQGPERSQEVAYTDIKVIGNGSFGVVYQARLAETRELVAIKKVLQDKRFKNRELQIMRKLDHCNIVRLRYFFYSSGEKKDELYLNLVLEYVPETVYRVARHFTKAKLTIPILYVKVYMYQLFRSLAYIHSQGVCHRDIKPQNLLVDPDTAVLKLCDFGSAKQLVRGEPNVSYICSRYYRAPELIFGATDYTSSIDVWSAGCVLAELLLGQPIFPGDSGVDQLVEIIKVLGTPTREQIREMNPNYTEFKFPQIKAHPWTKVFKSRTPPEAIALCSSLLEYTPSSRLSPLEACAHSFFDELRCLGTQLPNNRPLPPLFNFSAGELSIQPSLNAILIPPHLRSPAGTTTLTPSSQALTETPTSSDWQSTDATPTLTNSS

For `CC1(C)CC(=O)C2=C(C1)Nc1n[nH]cc1[C@]2(C)c1cc(C(F)(F)F)ccc1F` [Compound 816798], the IC50 in assay [1] (setting [3]) was not above 0.1 µM; in assay [2] (setting [4]) it was 0.1 to 1 µM.
Regarding `CC1(C)CC(=O)C2=C(C1)Nc1n[nH]cc1C21COC2(CN(C(=O)C3CCC(F)(F)C3)C2)C1` (stereo not drawn) [Compound 947265], the IC50 is not above 0.1 µM in assay [1] (setting [5]) and 0.1 to 1 µM in assay [2] (setting [6]).
For `CC[C@]1(c2cccc(N(C)c3ncccn3)c2)C2=C(CC(C)(C)NC2=O)Nc2[nH]ncc21` [Compound 943965] the same measures were 0.1 to 1 µM and more than 5 µM.
For `CC[C@]1(c2cccc(-c3cnn(C)c3C)c2)C2=C(CC(C)(C)NC2=O)Nc2n[nH]c(C)c21` [Compound 945727] the same measures were more than 5 µM and more than 5 µM.
`C[C@H]1CC(=O)C2=C(C1)Nc1n[nH]cc1C21CCOCC1` [Compound 912078]: the IC50 in assay [1] (setting [7]) and in assay [2] (setting [8]) was 0.1 to 1 µM in each case.
Turning to `CCC1(c2cccc(-c3nc(C)ncc3C)c2)C2=C(CC(C)(C)CC2=O)Nc2n[nH]cc21` (stereo not drawn) [Compound 948091], the IC50 in assay [1] (setting [9]) is not above 0.1 µM; in assay [2] (setting [10]), 0.1 to 1 µM.
The matching figures for `CC1(C)CC(=O)C2=C(C1)Nc1n[nH]cc1[C@]21CCCN(S(=O)(=O)C2CC2)CC1` [Compound 932659]: not above 0.1 µM and 0.1 to 1 µM.
Take `CCC1(c2cccc(Oc3cncnc3)c2)C2=C(CC(C)(C)CC2=O)Nc2n[nH]cc21` (stereo not drawn) [Compound 917212]: the IC50 in assay [1] (setting [7]) is not above 0.1 µM; in assay [2] (setting [8]), 0.1 to 1 µM.
For `CCN(c1cccnc1)c1cccc(C2(CC)C3=C(CC(C)(C)CC3=O)Nc3n[nH]cc32)c1` (stereo not drawn) [Compound 917089] the same measures were 0.1 to 1 µM and 1 to 5 µM.
On to `CCC1(c2cccc(C(F)(F)F)c2)C2=C(CCNC2=O)Nc2n[nH]cc21` (stereo not drawn) [Compound 870263], for which the IC50 was 0.1 to 1 µM in assay [1] (setting [5]) and more than 5 µM in assay [2] (setting [6]).
As to `CCC1(c2cccc(N(C)c3ccnc(C)c3)c2)C2=C(CC(C)(C)CC2=O)Nc2n[nH]cc21` (stereo not drawn) [Compound 917149], the IC50 in assay [1] (setting [7]) fell in the range of 0.1 to 1 µM; in assay [2] (setting [8]) it was 1 to 5 µM.
Consider `CCn1nccc1-c1cccc(C2(CC)C3=C(CC(C)(C)CC3=O)Nc3n[nH]cc32)c1` (stereo not drawn) [Compound 946090], for which the values for the IC50 in assay [1] (setting [9]) and in assay [2] (setting [10]) were 0.1 to 1 µM and more than 5 µM, respectively.
In the case of `CC[C@]1(c2cccc(-c3cn(C)nc3C(C)C)c2)C2=C(CC(C)(C)CC2=O)Nc2n[nH]c(C)c21` [Compound 913040], the IC50 in assay [1] (setting [7]) lay in the range of 0.1 to 1 µM; in assay [2] (setting [8]) it was 1 to 5 µM.
For the compound `C[S+]([O-])c1cccc(C2(C)C3=C(CC(C)(C)CC3=O)Nc3n[nH]c(CC(C)(C)C)c32)c1` (stereo not drawn) [Compound 126191], the IC50 is more than 5 µM in assay [1] (setting [11]) and 0.1 to 1 µM in assay [2] (setting [12]).
On to `CC[C@]1(c2cccc(C(F)(F)F)c2)C2=C(Nc3n[nH]cc31)c1ccccc1C2=O` [Compound 949743], for which the IC50 in assay [1] (setting [7]) was not above 0.1 µM; in assay [1] (GSK3-A (TR-FRET 1 mM ATP), GMean, IC50, 1 mM ATP, geometric mean), not above 0.1 µM; in assay [2] (setting [8]), not above 0.1 µM; in assay [2] (GSK3-B (TR-FRET 1 mM ATP), GMean, IC50, 1 mM ATP, geometric mean) it was 0.1 to 1 µM.
Turning to `CCC1(c2cccc(CN(C)C(=O)C(C)C)c2)C2=C(CC(C)(C)CC2=O)Nc2n[nH]cc21` (stereo not drawn) [Compound 865195], the figures for the IC50 in assay [1] (setting [3]) and in assay [2] (setting [4]) were 0.1 to 1 µM and more than 5 µM, respectively.
Consider `CN(C)C(=O)c1ccc(S(=O)(=O)N2CCC3(CC2)C2=C(CC(C)(C)CC2=O)Nc2n[nH]cc23)cc1` [Compound 945659], for which the IC50 in assay [1] (setting [9]) and in assay [2] (setting [10]) was not above 0.1 µM in each case.
For the compound `CC[C@]1(c2cccc(-c3ccncc3C)c2)C2=C(CC3(CCC3)NC2=O)Nc2n[nH]cc21` [Compound 948512], the IC50 in assay [1] (setting [3]) was not above 0.1 µM; in assay [1] (setting [11]) it was 0.1 to 1 µM; in assay [2] (setting [4]), not above 0.1 µM; in assay [2] (setting [12]), 1 to 5 µM.
On to `CC[C@]1(c2cccc(-c3c(C#N)cnn3C)c2)C2=C(CC(C)(C)NC2=O)Nc2n[nH]c(C)c21` [Compound 952410], for which the IC50 in assay [1] (setting [7]) is not above 0.1 µM; in assay [1] (setting [11]), 0.1 to 1 µM; in assay [2] (setting [8]), not above 0.1 µM; in assay [2] (setting [12]), 1 to 5 µM.
Consider `CCC1(c2cccc(N3CCOc4ccccc43)c2)C2=C(CC(C)(C)CC2=O)Nc2n[nH]cc21` (stereo not drawn) [Compound 918280], for which the IC50 in assay [1] (setting [7]) and in assay [2] (setting [8]) was not above 0.1 µM in each case.
As for `CCC1(c2ccccc2)C2=C(CCC(C)(C)C2=O)Nc2n[nH]cc21` (stereo not drawn) [Compound 835310], the results for the IC50 in assay [1] (setting [3]) and in assay [2] (setting [4]) were 0.1 to 1 µM and 1 to 5 µM, respectively.
The matching figures for `CCC1(c2cccc(OCCOC)c2)C2=C(CC(C)(C)CC2=O)Nc2n[nH]cc21` (stereo not drawn) [Compound 801446]: 0.1 to 1 µM and more than 1.67 µM.
On to `CC[C@]1(c2ccccc2)C2=C(CC3(CCC3)CC2=O)Nc2n[nH]cc21` [Compound 819572], for which the IC50 in assay [1] (setting [3]) and in assay [2] (setting [4]) was more than 5 µM each time.
Consider `CC[C@]1(c2cccc(-c3ccnc(C)c3)c2)C2=C(CC3(CCC3)NC2=O)Nc2n[nH]cc21` [Compound 949520], for which the results for the IC50 in assay [1] (setting [7]) and in assay [2] (setting [8]) were not above 0.1 µM and 0.1 to 1 µM, respectively.
`CCC1(c2cccc(-c3cnn4c3CCCC4)c2)C2=C(CC(C)(C)CC2=O)Nc2n[nH]cc21` (stereo not drawn) [Compound 945544]: the IC50 was 0.1 to 1 µM in assay [1] (setting [9]) and more than 5 µM in assay [2] (setting [10]).
On to `CC1(C)CC(=O)C2=C(Nc3n[nH]cc3C23CCN(S(=O)(=O)C2CC2)CC3)C1F` (stereo not drawn) [Compound 950814], for which the IC50 in assay [1] (setting [9]) and in assay [2] (setting [10]) was not above 0.1 µM each time.
Consider `Cc1[nH]nc2c1C1(CC3(CCC3)C1)C1=C(CC(C)(C)CC1=O)N2` [Compound 877295], for which the IC50 in assay [1] (setting [5]) and in assay [2] (setting [6]) was more than 5 µM each time.
As to `CC[C@@]1(c2cccc(-c3ccnc(C)c3)c2)C2=C(CC(C)(C)NC2=O)Nc2n[nH]c(Cl)c21` [Compound 949422], the IC50 is not above 0.1 µM in assay [1] (setting [7]), 0.1 to 1 µM in assay [1] (setting [11]), not above 0.1 µM in assay [2] (setting [8]) and 1 to 5 µM in assay [2] (setting [12]).
Consider `C[C@@H]1C[C@@]2(CCN1S(=O)(=O)c1ccn(C)n1)C1=C(CC(C)(C)CC1=O)Nc1n[nH]cc12` [Compound 917161], for which the IC50 in assay [1] (setting [9]) and in assay [2] (setting [10]) was not above 0.1 µM throughout.
Take `CC[C@]1(c2cccc(-c3cnc4n3CCCC4)c2)C2=C(CC(C)(C)CC2=O)Nc2n[nH]cc21` [Compound 945607]: the IC50 was not above 0.1 µM in assay [1] (setting [9]), 1 to 5 µM in assay [1] (setting [11]), 0.1 to 1 µM in assay [2] (setting [10]) and more than 5 µM in assay [2] (setting [12]).
For the compound `CC1CCCC12C1=C(CC(C)(C)CC1=O)Nc1n[nH]cc12` (stereo not drawn) [Compound 826765], the IC50 in assay [1] (setting [9]) lay within 0.1 to 1 µM; in assay [2] (setting [10]), 1 to 5 µM.
As to `CCc1cnccc1-c1cccc(C2(CC)C3=C(CC(C)(C)NC3=O)Nc3n[nH]cc32)c1` (stereo not drawn) [Compound 948657], the IC50 in assay [1] (setting [3]) and in assay [2] (setting [4]) was more than 5 µM each time.
In the case of `CCc1cccc(N(C)c2cccc(C3(CC)C4=C(CC(C)(C)CC4=O)Nc4n[nH]cc43)c2)n1` (stereo not drawn) [Compound 944023], the IC50 was not above 0.1 µM in assay [1] (setting [9]) and 0.1 to 1 µM in assay [2] (setting [10]).
As to `CCC1(c2cccc(N3CCOCC3)c2)C2=C(CC(C)(C)NC2=O)Nc2n[nH]c(C(F)(F)F)c21` (stereo not drawn) [Compound 947863], the IC50 in assay [1] (setting [3]) and in assay [2] (setting [4]) was not above 0.1 µM throughout.
For `CC[C@]1(c2cccc(-c3cc(C)nn3C)c2)C2=C(Nc3n[nH]cc31)[C@H](F)C(C)(C)CC2=O` [Compound 947656], the results for the IC50 in assay [1] (setting [9]) and in assay [2] (setting [10]) were 0.1 to 1 µM and more than 5 µM, respectively.
In the case of `CCC1(c2cccc(-c3cnn(C)c3C)c2)C2=C(CC(C)(C)NC2=O)Nc2n[nH]c(C(F)(F)F)c21` (stereo not drawn) [Compound 947403], the IC50 is not above 0.1 µM in assay [1] (setting [3]), not above 0.1 µM in assay [1] (setting [11]), not above 0.1 µM in assay [2] (setting [4]) and 0.1 to 1 µM in assay [2] (setting [12]).
